How the values were obtained:
AML12 Cell Line = test: Transfection of AML12 Cell Line with FLuc mRNA LNPs (ONE-Glo EX luciferase signal); format: cell-based; conditions: 200 ng Fluc mRNA-LNP, 24 hours
Procedure, shortened: (§1)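 LNPs (ionizable/structural/helper/PEG lipids, microfluidic mixing, mRNA quantified by RiboGreen) pre-incubated 30 min with mouse serum, then added at 200 ng mRNA per well in Opti-MEM to B16F10, MC38.K (5,000 cells/well) or AML12 (20,000 cells/well). Luminescence read after 24 h transfection.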

B16F10 Cell Line = test: Transfection of B16F10 Cell Line with FLuc mRNA LNPs (ONE-Glo EX luciferase signal); format: cell-based; conditions: 200 ng Fluc mRNA-LNP, 24 hours
Procedure, shortened: as §1

MC38.K Cell Line = test: Transfection of MC38.K Cell Line with FLuc mRNA LNPs (ONE-Glo EX luciferase signal); format: cell-based; conditions: 200 ng Fluc mRNA-LNP, 24 hours; for Total Luciferin Signal (RLU) In Vitro - MC38.K: Table 4; for Total Luciferin Signal (RLU) In Vitro-MC38: Table 5
Procedure, shortened: as §1

Liver = test: Ex-vivo luminescence signal from liver after IV Fluc mRNA LNPs in CD1 mice (IVIS); conditions: tail vein 1.0 mg/kg Day 0 and Day 2, imaging 18 hours after second dose; for Total Liver Tissue Luciferin Signal (Photons/s) Ex-vivo - CD1: Table 4; for Total Liver Tissue Luciferin Signal (Photons/s) In Vivo-Cd1: Table 5
hepatocytes = test: Comparative study of fluoro v. non-fluoro compounds: Firefly Luciferase transfection efficiency; format: cell-based; conditions: Firefly Luciferase expression in hepatocytes; pairs Compound 54 v. 58 and Compound 68 v. 67
Description: Transfection efficiency was compared between three pairs of compounds, Compound 54 v. Compound 58, Compound 68 v. Compound 67, and Compound 37 v. Compound 61. For each pair, the compounds only differ on one fluoro-substitution at the end of an alkyl chain. For example, the structures of Compound 54 and Compound 58 are shown below:
In vitro and in vivo comparison of Firefly Luciferase expression data of fluoro v. non-fluoro compounds were obtained according to procedure similar to those in Example 3 and Example 7. […] Compound 58 and Compound 68 v. Compound 67 in hepatocytes.

Spleen = test: Ex-vivo luminescence signal from spleen after IV Fluc mRNA LNPs in CD1 mice (IVIS); conditions: tail vein 1.0 mg/kg Day 0 and Day 2, imaging 18 hours after second dose, Table 5
C57BL/6 mice = test: Multi-dose tolerability screening of NT-beta-Actin mRNA LNPs in MC38.K-inoculated C57BL/6 mice; format: in vivo; conditions: C57BL/6 mice with MC38.K, 1.0 mg/kg IV twice a week for two weeks; for adverse clinical observations / reduction in white blood cells and lymphocytes in the blood: compared to Compound 23 LNPs
Experimental: NT-beta-Actin mRNA LNPs with different ionizable lipids were administered IV to C57BL/6 mice, inoculated with MC38.K cells, via the tail vein for a total of four doses (twice a week for two consecutive weeks) at a concentration of 1.0 mg/kg. Bodyweights were monitored and blood was collected pre-dose, 24 hours post first dose, 24 hours post fourth dose, and analyzed for cytokines, blood chemistry, and liver/spleen weights. Compounds 23, 99 and 101 were formulated using a peripheral process method. C57BL/6 mice were inoculated with MC38.K cells. Once tumors had grown, 1.0 mg/kg (Beta-Actin mRNA) of each LNP was intravenously administered twice a week for two weeks. […] N=6 per group for bodyweights, N=3 for blood analysis. Mean+/−SD.

liver, tumor, and spleen = test: Biodistribution of Fluc mRNA LNPs in MC38.K-inoculated Albino B6 mice (ex vivo luminescence); conditions: Albino B6 mice with MC38.K, 1.0 mg/kg IV, 18 hours
Experimental: Fluc mRNA LNPs were administered to Albino B6 mice, inoculated with MC38.K cells, via the tail vein at 1.0 mg/kg. Eighteen hours later, bioluminescence was measured using an IVIS Spectrum imager. Mice were treated with 150 mg/kg luciferin substrate administered via intraperitoneal injection. Afterwards, mice were euthanized, and the lung, liver, spleen, and tumor were harvested for ex vivo imaging. All procedures were conducted according to the approved IACUC guidelines. N=5 per group. Data analysis was performed in Graphpad Prism 10. Values are reported as mean+/−standard deviation, unless specified otherwise. Ex-Vivo luminescence of liver, tumor, and spleen organs after 1.0 mg/kg IV injection of Peripheral LNPs. N=4 mice per group. (Mean±SD, n=4/group).

| Structure (SMILES) | Total Luciferin Signal (RLU) In Vitro - AML12 (AML12 Cell Line; Table 4) [RLU] | Total Luciferin Signal (RLU) In Vitro - B16F10 (B16F10 Cell Line; Table 4) [RLU] | Total Luciferin Signal (RLU) In Vitro - MC38.K (MC38.K Cell Line) [RLU] | Total Liver Tissue Luciferin Signal (Photons/s) Ex-vivo - CD1 (Liver) [Photons/s] | difference in transfection efficiency within fluoro v. non-fluoro pair (hepatocytes) | Total Luciferin Signal (RLU) In Vitro - AML12 (AML12 Cell Line; Table 5) [RLU] | Total Luciferin Signal (RLU) In Vitro - B16F10 (B16F10 Cell Line; Table 5) [RLU] | Total Luciferin Signal (RLU) In Vitro-MC38 (MC38.K Cell Line) [RLU] | Total Liver Tissue Luciferin Signal (Photons/s) In Vivo-Cd1 (Liver) [Photons/s] | Total Spleen Tissue Luciferin Signal (Photons/s) In Vivo-Cd1 (Spleen) [Photons/s] | tolerability (C57BL/6 mice) | adverse clinical observations (C57BL/6 mice) | reduction in white blood cells and lymphocytes in the blood (C57BL/6 mice) | expression in liver and spleen (ex-vivo luminescence) (liver, tumor, and spleen) | expression in solid tumor tissue (ex-vivo luminescence) (liver, tumor, and spleen) |
| --- | --- | --- | --- | --- | --- | --- | --- | --- | --- | --- | --- | --- | --- | --- | --- |
| CCCCCCCCC(CCCCCCCC)OC(=O)CCCCCCCN(CCO)CCCCCCCOC(=O)CCCCCCCC=C(C)C [Compound 54, 7-((8-(heptadecan-9-yloxy)-8-oxooctyl)(2-hydroxyethyl)amino)heptyl 10-methylundec-9-enoate] | 1.05E+06 | 7.25E+05 | 5.12E+06 | 8.29E+09 | Statistically significant difference in transfection efficiency | – | – | – | – | – | – | – | – | – | – |
| CCCCCCCCC(CCCCCCCCF)OC(=O)CCCCCCCN(CCO)CCCCCCCC(=O)OCCCCCCCC=C(C)C (stereo not drawn) [Compound 58, 1-fluoroheptadecan-9-yl 8-((2-hydroxyethyl)(8-((9-methyldec-8-en-1-yl)oxy)-8-oxooctyl)amino)octanoate] | 2.18E+06 | 4.03E+05 | 4.80E+06 | 9.65E+09 | Statistically significant difference in transfection efficiency | – | – | – | – | – | – | – | – | – | – |
| CCCCCCCCC(CCCCCCCCF)OC(=O)CCCCCCCN(CCCCO)CCCCCCC(C)C(=O)OCCCCCCCCC(C)C (stereo not drawn) [Compound 67, 9-methyldecyl 8-((8-((1-fluoroheptadecan-9-yl)oxy)-8-oxooctyl)(4-hydroxybutyl)amino)-2-methyloctanoate] | 4.35E+06 | 2.75E+06 | 3.24E+07 | 5.31E+09 | Statistically significant difference in transfection efficiency | – | – | – | – | – | – | – | – | – | – |
| CCCCCCCCC(CCCCCCCC)OC(=O)CCCCCCCN(CCCCO)CCCCCCC(C)C(=O)OCCCCCCCCC(C)C (stereo not drawn) [Compound 68, 9-methyldecyl 8-((8-(heptadecan-9-yloxy)-8-oxooctyl)(4-hydroxybutyl)amino)-2-methyloctanoate] | 2.89E+06 | 2.83E+06 | 1.60E+07 | 1.06E+10 | Statistically significant difference in transfection efficiency | – | – | – | – | – | – | – | – | – | – |
| CCCCCCCC/C=C\CCCCCCC1CN(CCOC(=O)CCN(C)C)CC(CCCCCC(=O)OC(CCCCCCCC)CCCCCCCC)O1 (stereo not drawn) [Compound 97, heptadecan-9-yl (Z)-6-(4-(2-((3-(dimethylamino)propanoyl)oxy)ethyl)-6-(hexadec-7-en-1-yl)morpholin-2-yl)hexanoate] | – | – | – | – | – | 2.58E+05 | 2.98E+06 | 6.42E+05 | 2.08E+08 | 1.60E+07 | – | – | – | – | – |
| CCCCCCCC/C=C\CCCCCCC1CN(CCOC(=O)CCN(C)C)CC(CCCCCC(=O)OC(CCCCCCCC)CCCCCCC(C)C)O1 (stereo not drawn) [Compound 99, 2-methylheptadecan-9-yl (Z)-6-(4-(2-((3-(dimethylamino)propanoyl)oxy)ethyl)-6-(hexadec-7-en-1-yl)morpholin-2-yl)hexanoate] | – | – | – | – | – | 1.00E+05 | 5.27E+05 | 7.66E+04 | 1.81E+09 | 2.78E+07 | improved tolerability | less adverse clinical observations | less of a reduction in white blood cells and lymphocytes | significantly less expression | nearly equivalent expression |
| CCCCCCCCC(CCCCCCCC)OC(=O)CCCCCC1CN(CCOC(=O)CCN(C)C)CC(CCCCCC(=O)OC(CCCCCCCC)CCCCCCCC)O1 (stereo not drawn) [Compound 100, di(heptadecan-9-yl) 6,6′-(4-(2-((3-(dimethylamino)propanoyl)oxy)ethyl)morpholine-2,6-diyl)dihexanoate] | – | – | – | – | – | 1.43E+04 | 6.29E+04 | 3.18E+04 | 6.44E+09 | 2.92E+07 | – | – | – | – | – |
| CCCCCCCCCOC(=O)CCCCCC1CN(CCOC(=O)CCN(C)C)CC(CCCCCC(=O)OC(CCCCCCCC)CCCCCCCC)O1 (stereo not drawn) [Compound 101, heptadecan-9-yl 6-(4-(2-((3-(dimethylamino)propanoyl)oxy)ethyl)-6-(6-(nonyloxy)-6-oxohexyl)morpholin-2-yl)hexanoate] | – | – | – | – | – | 9.36E+04 | 6.73E+04 | 6.90E+05 | 6.70E+08 | 1.57E+08 | improved tolerability | less adverse clinical observations | less of a reduction in white blood cells and lymphocytes | – | – |

— patent US20260116845A1, “LIPIDS AND COMPOSITIONS THEREOF” (Kernal Biologics, Inc., priority 2023, published 2026)
